In patent publication US10980754B2, “Anti-fungal compounds” (SAINT LOUIS UNIVERSITY, priority 2016, dated 2021):
In brackets after ≈: the same amount, converted by molar mass. Entries after “also recorded” stand apart in the source; their conditions may differ.

Tests used:
[1] = system: C. neoformans var grubii, KN99; test: Inhibition of C. neoformans growth, limiting dilution assay (MIC); assay type: cell-based; settings: for MIC80: KN99α, minimal concentration inhibiting 80% of growth relative to vehicle; for activity against C. neoformans (in words): MIC assay
Description: Strains and media. All inhibition assays were performed with C. neoformans var grubii, KN99 (serotype A, MATα; kindly provided by Jennifer Lodge). Two clinical strains of C. neoformans var grubii, serotype A, were kindly provided by Tamara Doering and Andre Spec. […] Each assay was done in triplicate and all values are the average of two or more independent assays. The data are presented as the average cell density as a percent of DMSO-only treated cells. […] However, these conditions are unlike conditions encountered by C. neoformans in mammalian infections, where nutrients are limited, and the pH and temperature are higher than in YPD media. The cryptococcal stress response to low glucose and high pH and temperature may alter its susceptibility to the inhibitors. It is also possible that the enzymes targeted by the inhibitors may render the cell temperature sensitive when inhibited. To better mimic growth in mammals, growth was tested without shaking in nutrient-limited media at 35° C. […] However, as the nutrient-limited media and higher temperature is more similar to mammalian cell growth conditions, these conditions were used for all further assays. […] All values were measured at least two times in independent experiments and the average MIC is reported.

[2] = Cytotoxicity in hepatoma cells (MTS); settings: human, HepDES19 cells
Description: (§1) HepDES19 cells (1.0×10^4 cells per well) were seeded in 96-well plates and incubated in DMEM with 10% fetal bovine serum (FBS) plus 1% penicillin and streptomycin, 1% nonessential amino acids, and 1% glutamine. The compounds were diluted in the medium at concentrations ranging from 0.78 to 100 μM plus 1% DMSO and added to the cells 48 hours after plating, with each concentration tested in triplicate. Cells were incubated with the compound for 72 hours and cytotoxicity was measured using a mitochondrial metabolic assay with MTS (Promega). The data were transformed to log[inhibitor] and fit to a 4-variable slope curve using GraphPad Prism (v6, www.graphpad.com).
(§2) Three days later, the MTS reagent was added for 90 minutes prior to terminating the incubation period and reading the OD480.

[3] = system: HepDES19 cells; test: Cytotoxicity in hepatoma cells (MTS); settings: 72 hours, MTS
Description: as §1, §2

[4] = system: Wild-type KN99α; test: Screening of 1-Hydroxy-1,8-naphthyridin-2(1H)-one (HNO) compounds for growth inhibition; assay type: cell-based, C. neoformans; settings: Cryptococcus neoformans; growth inhibited >80%
Description: FIG. 1. Results from screening 8 napthyridinone derivatives. Wild-type KN99α at a starting density of 0.0005 was treated with the compounds at 4 μM, 15 μM, and 60 μM in nutrient-limiting media (YNB, pH 7)+1% DMSO at 35° C. for 48 hours. Bars represent the average cell density of at least three replicates as percent of untreated cells.
Eight compounds in the 1-Hydroxy-1,8-naphthyridin-2(1H)-one (HNO) chemical family were also tested. Three compounds, #149, #153 and #154, inhibited growth of C. neoformans >80% with MICs of ˜10 μM, ˜4 μM and ˜20 μM respectively.

[5] = Cryptococcus neoformans, YNB-02+1% DMSO, 35° C., 48 hours
[6] = CC50, HepDES19 cells, 72 hours, MTS
[7] = YNB-02+1% DMSO, 35° C., 48 hours
[8] = Cryptococcus neoformans, Table 3, similar methods to Table 2
[9] = CC50, Table 3, similar methods to Table 2

Row | Molecule | MIC80 [1, 5] [µM] | CC50 at 72 h [2, 6] [µM] | further results
1 | CC(C)c1ccc(O)c(=O)cc1 [Compound 48, γ-thujaplicin] | 8 (≈ 1.31 µg/mL) | 45 | 
2 | CC(C)=CCc1ccc(=O)c(O)cc1C(C)C [Compound 49, Nootkatin] | 18 (≈ 4.18 µg/mL) | 18.5 | 
3 | O=Nc1ccc(O)c(=O)cc1 [Compound 50, 5-nitrosotropolone] |  |  | MIC80 [1, 7]: 24 µM (≈ 3.63 µg/mL); CC50 [3]: 17.5 µM
4 | O=C(Oc1cccccc1=O)c1ccc([N+](=O)[O-])cc1 [Compound 51, tropolone p-nitrobenzoate] | 24 (≈ 6.51 µg/mL) | > 100 | 
5 | O=C(Nc1ccc(O)c(=O)cc1)c1ccccc1 [Compound 52] | 50 (≈ 12.1 µg/mL) | > 100 | 
6 | O=c1cccccc1O [Compound 53, Tropolone] | 24 (≈ 2.93 µg/mL) | 100 | MIC [1, 5]: 24 µM (≈ 2.93 µg/mL)
7 | CC(=O)NC(CCc1ccc(Cl)c(Cl)c1)c1cccc(O)c(=O)c1 (stereo not shown) [Compound 55] | 6 (≈ 2.2 µg/mL) | 4.3 | CC50 at 72 h ([2]; CC50, HepDES19, MTS): 4 µM
8 | C=C(C)C1CCc2c(c(C)cc(O)c(=O)c2O)C1 (stereo not shown) [Compound 56, Manicol] | 50 (≈ 12.3 µg/mL) | 27 | 
9 | O=c1cccccc1Cl [Compound 57, 2-chlorotropone] |  |  | MIC80 [1, 7]: 50 µM (≈ 7.03 µg/mL)
10 | Cc1ccc(C(=O)Nc2cccccc2=O)cc1 [Compound 60] | 50 (≈ 12 µg/mL) | > 100 | 
11 | Cc1ccc(S(=O)(=O)Oc2cccccc2=O)cc1 [Compound 61] | 41 (≈ 11.3 µg/mL) | 30.5 | CC50 at 72 h ([2]; CC50, HepDES19, MTS): 30.5 µM
12 | O=C(Oc1cccccc1=O)c1ccc(Cl)cc1 [Compound 63] | 17 (≈ 4.43 µg/mL) | 100 | 
13 | COC(=O)c1c(C)cc(O)c(=O)c(O)c1C(=O)OC [Compound 106] | 41 (≈ 11 µg/mL) | 24.5 | 
14 | COC(=O)c1c(CCl)cc(O)c(=O)c(O)c1C(=O)OC [Compound 107] | 50 (≈ 15.1 µg/mL) | 85.5 | 
15 | COCc1cc(O)c(=O)c(O)c(C(=O)OC)c1C(=O)OC [Compound 108] | 50 (≈ 14.9 µg/mL) | 90.5 | 
16 | CC(=O)c1cc(O)c(=O)c(O)cc1C [Compound 110] | 50 (≈ 9.71 µg/mL) | 19 | MIC [1, 5]: ≥ 50 µM
17 | Cc1cc(O)c(=O)c(O)cc1C(=O)c1ccccc1 [Compound 111] | 36 (≈ 9.23 µg/mL) | 26.3 | 
18 | Cc1cc(O)c(=O)c(O)cc1-c1ccc([N+](=O)[O-])cc1 [Compound 112] | 49 (≈ 13.4 µg/mL) | 74 | 
19 | Cc1cc(O)c(=O)c(O)cc1-c1ccccc1 [Compound 113] | 24 (≈ 5.48 µg/mL) | 37.5 | 
20 | Cc1cc(O)c(=O)c(O)cc1-c1ccc(Br)cc1 [Compound 114] | 11 (≈ 3.38 µg/mL) | 18.6 | 
21 | Cc1cc(O)c(=O)c(O)cc1C(=O)c1ccc(-c2ccccc2)cc1 [Compound 118] | 18 (≈ 5.98 µg/mL) | 17.5 | 
22 | Cc1cc(O)c(=O)c(O)cc1C(=O)C1CCCCC1 [Compound 120] | 12 (≈ 3.15 µg/mL) | 21.5 | 
23 | Cc1cc(O)c(=O)c(O)cc1C(=O)C(C)C [Compound 143] | 50 (≈ 11.1 µg/mL) | > 100 | MIC [1, 5]: ≥ 50 µM
24 | Cc1cc(O)c(=O)c(O)cc1-c1ccc(Cl)cc1 [Compound 144] | 50 (≈ 13.1 µg/mL) |  | 
25 | Cc1cc(O)c(=O)c(O)cc1-c1ccc(C(F)(F)F)cc1 [Compound 145] | 15 (≈ 4.44 µg/mL) | 11 | 

Row | Molecule | MIC80 [1, 5] [µM] | CC50 at 72 h [2, 6] [µM] | further results
26 | Cc1cc(O)c(=O)c(O)cc1-c1cccc2ccccc12 [Compound 146] | 20 (≈ 5.57 µg/mL) | 20 | 
27 | O=c1cc(Cc2ccc(Br)cc2)c2cccnc2n1O [Compound 149] |  |  | MIC [4]: ~10 µM (≈ 3.31 µg/mL)
28 | NCc1cccc(-c2ccc(Cc3cc(=O)n(O)c4ncccc34)cc2)c1 [Compound 153] |  |  | MIC [4]: ~4 µM (≈ 1.43 µg/mL)
29 | O=c1cc(-c2ccccc2)c2cccnc2n1O [Compound 154] |  |  | MIC [4]: ~20 µM (≈ 4.76 µg/mL)
30 | O=c1c(O)ccccc1O [Compound 172, 7-Hydroxytropolone] | 24 (≈ 3.31 µg/mL) | 100 | MIC [1, 5]: 24 µM (≈ 3.31 µg/mL); activity against C. neoformans (in words) [1]: little activity
31 | Cc1ccc(O)c(=O)c(O)c1 [Compound 210] | 15 (≈ 2.28 µg/mL) | 71 | MIC [1, 5]: ≤ 15 µM
32 | O=c1c(O)ccc(-c2ccccc2)cc1O [Compound 262, 2,7-dihydroxy-4-phenylcyclohepta-2,4,6-trien-1-one] | 18 (≈ 3.86 µg/mL) | 96 | 
33 | O=c1c(O)ccc(-c2ccc(-c3ccccc3)cc2)cc1O [Compound 264, 4-([1,1′-biphenyl]-4-yl)-2,7-dihydroxycyclohepta-2,4,6-trien-1-one] | 35 (≈ 10.2 µg/mL) | 28 | 
34 | O=c1c(O)ccc(-c2ccco2)cc1O [Compound 265, 4-(furan-2-yl)-2,7-dihydroxycyclohepta-2,4,6-trien-1-one] |  |  | MIC [1, 5]: ≤ 15 µM
35 | COC(=O)c1cc(O)c(=O)c(OC)cc1C [Compound 273] | 50 (≈ 11.2 µg/mL) | 100 | activity against C. neoformans (in words) [1]: no activity
36 | COC(=O)c1c2c(cc(O)c(=O)c1O)COC2=O [Compound 280, Methyl 5,7-dihydroxy-3,6-dioxo-3,6-dihydro-1H-cyclohepta[c]furan-4-carboxylate] | 50 (≈ 12.6 µg/mL) | 66 | 
37 | Cc1ccccc1C(=O)Oc1cccccc1=O [Compound 281] | 50 (≈ 12 µg/mL) | 100 | 
38 | O=C(Oc1cccccc1=O)c1ccccc1Cl [Compound 282] | 36 (≈ 9.38 µg/mL) |  | CC50 [3]: 96.5 µM
39 | Cc1cc(O)c(=O)c(O)cc1C(=O)c1cccs1 [Compound 308, 4-(thiopene-2-carbonyl)-2,7-dihydroxy-5-methylcyclohepta-2,4,6-trien-1-one] | 11 (≈ 2.89 µg/mL) | 24 | 
40 | Cc1cc(O)c(=O)c(O)cc1C(=O)c1ccco1 [Compound 309, 4-(furan-2-carbonyl)-2,7-dihydroxy-5-methylcyclohepta-2,4,6-trien-1-one] | 24 (≈ 5.91 µg/mL) | 35 | 
41 | Cc1cc(O)c(=O)c(O)cc1C(=O)C1CC1 [Compound 310, 4-(cyclopropanecarbonyl)-2,7-dihydroxy-5-methylcyclohepta-2,4,6-trien-1-one] | 11 (≈ 2.42 µg/mL) | 35 | 
42 | Cc1cc(O)c(=O)c(O)cc1C(=O)c1ccccc1O [Compound 311, 4-(2-hydroxybenzoyl)-2,7-dihydroxy-5-methylcyclohepta-2,4,6-trien-1-one] | 15 (≈ 4.08 µg/mL) | 20 | 
43 | COc1ccc(C(=O)c2cc(O)c(=O)c(O)cc2C)cc1 [Compound 312, 4-(4-methoxybenzoyl)-2,7-dihydroxy-5-methylcyclohepta-2,4,6-trien-1-one] | 18 (≈ 5.15 µg/mL) | 18 | 
44 | Cc1cc(O)c(=O)c(O)cc1C(=O)c1ccc([N+](=O)[O-])cc1 [Compound 313, 2,7-dihydroxy-4-methyl-5-(4-nitrobenzoyl)cyclohepta-2,4,6-trien-1-one] | 24 (≈ 7.23 µg/mL) | 46 | 
45 | Cc1cc(O)c(=O)c(O)cc1C(=O)c1ccc2ccccc2c1 [Compound 315, 4-(2-naphthoyl)-2,7-dihydroxy-5-methylcyclohepta-2,4,6-trien-1-one] | 24 (≈ 7.35 µg/mL) | 17 | 
46 | COc1cc(C)c(C(=O)c2ccccc2)c(C(=O)c2ccccc2)c(O)c1=O [Compound 317, (7-hydroxy-5-methoxy-3-methyl-6-oxocyclohepta-2,4,7-triene-1,2-diyl) bis (phenyl methanone)] | 50 (≈ 18.7 µg/mL) | > 100 | activity against C. neoformans (in words) [1]: little activity; also recorded: no activity
47 | Cc1cc(O)c(=O)c(O)cc1C(=O)O [Compound 319, 4,6-dihydroxy-2-methyl-5-oxocyclohepta-1,3,6-triene-1-carboxylic Acid] | 50 (≈ 9.81 µg/mL) | > 100 | MIC [1, 5]: ≥ 50 µM
48 | O=C(Sc1cccccc1=O)c1ccccc1 [Compound 364] |  |  | MIC [1, 8]: 0.2 µM (≈ 0.0485 µg/mL); CC50 at 72 h [2, 9]: 46 µM
49 | Cc1ccc(CSc2cccccc2=O)cc1 [Compound 365] |  |  | MIC [1, 8]: > 50 µM; CC50 at 72 h [2, 9]: > 100 µM
50 | Purpurogallin [Compound 195] |  |  | MIC80 [1, 7]: 50 µM; activity against C. neoformans (in words) [1]: largely ineffective; CC50 [3]: 92 µM
